From patent US11859212B2, “Method for producing intestinal organoid derived from pluripotent stem cells” (PUBLIC UNIVERSITY CORPORATION NAGOYA CITY UNIVERSITY, priority 2017, dated 2024)
Read-outs that look alike come from different tables or passages of the source.

Assays:
[1] = target: T1, ABCG2/BCRP (Homo sapiens, UniProt Q9UNQ0); test: Hoechst 33342 transport experiment, human intestinal organoids obtained with polysaccharide polymers; format: in vitro ADME
T1 sequence (Q9UNQ0 1-655): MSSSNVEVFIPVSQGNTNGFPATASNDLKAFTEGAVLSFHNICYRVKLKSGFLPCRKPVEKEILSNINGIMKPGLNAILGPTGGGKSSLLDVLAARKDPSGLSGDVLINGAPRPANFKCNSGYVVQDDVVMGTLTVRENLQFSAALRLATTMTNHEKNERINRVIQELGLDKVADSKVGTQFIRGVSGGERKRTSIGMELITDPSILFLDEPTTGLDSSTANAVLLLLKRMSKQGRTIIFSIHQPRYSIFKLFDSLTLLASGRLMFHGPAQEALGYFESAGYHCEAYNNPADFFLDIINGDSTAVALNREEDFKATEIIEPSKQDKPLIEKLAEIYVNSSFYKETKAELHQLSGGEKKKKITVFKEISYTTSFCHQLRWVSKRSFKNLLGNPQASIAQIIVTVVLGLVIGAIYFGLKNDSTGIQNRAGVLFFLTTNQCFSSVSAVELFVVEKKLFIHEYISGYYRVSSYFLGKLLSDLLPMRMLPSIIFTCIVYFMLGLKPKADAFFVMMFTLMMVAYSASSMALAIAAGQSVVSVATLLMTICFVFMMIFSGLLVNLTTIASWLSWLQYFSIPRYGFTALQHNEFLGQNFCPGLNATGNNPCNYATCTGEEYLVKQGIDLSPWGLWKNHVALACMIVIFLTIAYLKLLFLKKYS

[2] = system: CYP3A4
[3] = system: CYP3A8
[4] = system: CYP3A4; test: CYP3A4 induction ability of human intestinal organoids obtained with polysaccharide polymers (mRNA and midazolam metabolic activity); details: VD3 1 μmol/L, 72 hours
[5] = system: CYP3A4; test: Drug metabolism experiment with midazolam, CYP3A4 metabolic activity of human intestinal organoids obtained with polysaccharide polymers; details: 5 μmol/L midazolam
[6] = system: CYP3A8; test: Drug metabolism experiment with midazolam, CYP3A8 metabolic activity of cynomolgus monkey intestinal organoids; details: 5 μmol/L midazolam, 37° C., 24 hours
[7] = target: T2, ABCB1/MDR1 (Homo sapiens, UniProt P08183); test: Rhodamine 123 uptake experiment, function of ABCB1/MDR1 in human intestinal organoids (fluorescence observation); format: in vitro ADME; details: rhodamine 123 10 μmol/L, 37° C., 1 hour, absence of verapamil
T2 sequence (P08183 whole entry): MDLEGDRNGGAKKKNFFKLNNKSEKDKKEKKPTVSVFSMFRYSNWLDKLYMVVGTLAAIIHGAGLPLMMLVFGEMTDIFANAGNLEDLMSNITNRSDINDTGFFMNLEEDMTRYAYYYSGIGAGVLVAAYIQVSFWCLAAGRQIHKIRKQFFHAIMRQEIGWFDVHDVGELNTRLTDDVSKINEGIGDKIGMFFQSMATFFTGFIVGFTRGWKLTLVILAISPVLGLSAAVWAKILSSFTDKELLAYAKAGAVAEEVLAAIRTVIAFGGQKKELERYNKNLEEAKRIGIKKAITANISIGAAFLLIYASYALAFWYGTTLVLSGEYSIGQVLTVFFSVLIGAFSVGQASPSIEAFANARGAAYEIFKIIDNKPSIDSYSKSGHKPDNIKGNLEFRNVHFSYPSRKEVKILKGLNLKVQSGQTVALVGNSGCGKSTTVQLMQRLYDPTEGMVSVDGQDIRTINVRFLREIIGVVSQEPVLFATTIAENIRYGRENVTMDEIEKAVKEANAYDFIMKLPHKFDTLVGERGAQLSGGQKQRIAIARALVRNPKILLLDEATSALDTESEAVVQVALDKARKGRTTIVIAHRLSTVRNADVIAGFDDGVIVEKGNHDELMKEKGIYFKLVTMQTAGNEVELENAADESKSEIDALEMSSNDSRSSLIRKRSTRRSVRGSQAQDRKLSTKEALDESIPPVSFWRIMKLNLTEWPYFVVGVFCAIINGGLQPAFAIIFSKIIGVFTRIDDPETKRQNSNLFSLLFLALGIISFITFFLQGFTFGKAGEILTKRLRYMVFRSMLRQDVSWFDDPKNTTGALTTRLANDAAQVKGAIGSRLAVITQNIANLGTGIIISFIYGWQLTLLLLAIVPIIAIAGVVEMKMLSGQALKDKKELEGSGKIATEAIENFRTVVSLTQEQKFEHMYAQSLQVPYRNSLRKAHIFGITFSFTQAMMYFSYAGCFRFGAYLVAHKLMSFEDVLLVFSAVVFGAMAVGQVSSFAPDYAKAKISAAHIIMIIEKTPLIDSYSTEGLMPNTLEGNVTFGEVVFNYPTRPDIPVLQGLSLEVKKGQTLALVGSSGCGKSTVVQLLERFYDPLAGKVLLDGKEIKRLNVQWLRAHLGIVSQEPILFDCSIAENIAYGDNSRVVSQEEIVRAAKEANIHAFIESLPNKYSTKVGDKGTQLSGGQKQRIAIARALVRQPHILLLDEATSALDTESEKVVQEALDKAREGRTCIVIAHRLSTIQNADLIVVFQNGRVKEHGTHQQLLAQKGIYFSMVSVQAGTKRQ

[8] = target: T2, ABCB1/MDR1; test: Rhodamine 123 transport experiment, human intestinal organoids obtained with polysaccharide polymers; format: in vitro ADME

## CCOc1ccc(-c2nc3ccc(-c4nc5ccc(N6CCN(C)CC6)cc5[nH]4)cc3[nH]2)cc1 [Hoechst 33342]
[1]
  excretion of Hoechst 33342 into the intestinal organoids: observed

## C=C1/C(=C\C=C2/CCC[C@]3(C)[C@@H]([C@H](C)CCCC(C)(C)O)CC[C@@H]23)C[C@@H](O)C[C@@H]1O [VD3, 1α, 25-dihydroxyvitamin D3]
[2]
  induction of mRNA expression of CYP3A4 as compared with the control group: approximately 4.5 times
[3]
  induction of mRNA expression of CYP3A8 as compared with the control group: no induction
[4]; 5 μmol/L midazolam
  midazolam metabolic activity in the inducer-added group: significantly increased
[4]; organoids obtained with polysaccharide polymers
  induction of mRNA expression of CYP3A4 as compared with the control group: significantly induced

## CC(=O)N1CCN(c2ccc(OCC3COC(Cn4ccnc4)(c4ccc(Cl)cc4Cl)O3)cc2)CC1 (stereo not shown) [ketoconazole]
[5]
  effect of inhibitor on midazolam metabolic activity: significantly inhibited

## Cc1ncc2n1-c1ccc(Cl)cc1C(c1ccccc1F)=NC2 [midazolam]
[6]
  midazolam metabolic activity: observed
[5]; 37° C., 24 hours
  midazolam metabolic activity: observed

## rhodamine 123
[7]
  excretion of rhodamine 123 into the intestinal organoids: observed
[8]
  excretion of rhodamine 123 into the intestinal organoids: observed
